Experimental data reported in US20180078916A1, “LIGNIN-BASED SURFACTANTS” (CARNEGIE MELLON UNIVERSITY, priority 2015, published 2018).

Test system: corn plants
Assay: clethodim application to corn plants with tank-mix adjuvants, % inhibition versus untreated control plants
Format: in vivo
Conditions: clethodim 1 fluid ounce/acre without tank-mix adjuvants, 7 days following treatment
Excerpt: Various surfactants are used as adjuvants for agrochemicals to enhance deposition and penetration through plant surfaces. Two commercial tank-mix adjuvant systems that may be used for comparison are PRIME OIL® and SUPERB® HC (available from Winfield Solutions, LLC of Shoreview, Minn.), which are high surfactant oil concentrates. Representative studied were based on delivery of clethodim at 1 fluid ounce/acre, a commercial herbicide that inhibits growth of certain plants. A measure of effectiveness was the % inhibition (with 0% being no inhibition) compared to untreated control plants. Photographs (a)-(e) of FIG. 11 provide images of corn plants (corn being a common contaminant crop in soybean fields) treated with different formulations 7 days after treatment. Comparatively good results are obtained with clethodim and KLPEG900. Lignin adjuvant activity appeared to be higher at 0.05% v/v that 0.1% v/v.
FIG. 12 illustrates a graph wherein % inhibition is plotted for the different formulations 7 days following treatment.

## CCSC(C)CC1CC(=O)C(/C(CC)=N/OC/C=C/Cl)=C(O)C1 (stereo not shown) [Clethodim, clethodim]
  % inhibition: 54.4%
